Values joined by “and” are separate entries in the source; they are usually repeats but may differ in a detail not shown here. Identical values can stand only once.
Assays:
[1] = Particle size distribution by laser diffraction (LD); type: physicochemical; conditions: bulk CoQ10 powder
Description: Bulk CoQ10 powder was dispersed in 20% (v/v) 1,3-propanediol in deionized water for analysis of particle size distribution. This dispersed sample was then added to a small cell apparatus in a Malvern Mastersizer S® instrument (Malvern Instruments, Worcestershire, UK) equipped with a 300 mm lens until 5-10% obscuration was attained. The internal phase and dispersant refractive indexes were 1.45 and 1.33, respectively.
Particle size distribution testing of the dispersed formulations was performed with LD using a wet sample dispersion unit stirring at 1,000 rpm coupled to a Malvern Spraytec® (Malvern Instruments, Worcestershire, UK) equipped with a 300 mm lens. The dispersed formulations were added to distilled water (dispersant) until approximately 5% laser obscuration was attained. The internal phase and dispersant refractive indexes were set as 1.45 and 1.33, respectively. […] Span is a measurement of particle size distribution calculated as [Dv(90)−[…]]/Dv(50)]. […]
Particle size distribution testing of the dispersed formulations was performed with LD using a wet sample dispersion unit stirring at 1,000 rpm coupled to a Malvern Spraytec® (Malvern Instruments, Worcestershire, UK) equipped with a 300 mm lens. […] Span is the measurement of particle size distribution calculated as [Dv(90)−Dv(10)]/Dv(50)]. […]

IL-12 = assay: Inflammatory response: BAL supernatant ELISA for IL-12; type: in vivo, mice; conditions: pulmonary administration
Description: The inflammatory response to the administration of hydrophobic bioactive agents (e.g., as discussed in connection with Example 1-3 above) was measured. Surgery is performed on sacrificed mice to expose the pleural cavity and trachea at the throat. […] An aliquot (about 0.75 mL) of phosphate buffered saline is instilled through the cannula into the lungs and removed to wash the bronchial and alveolar surfaces. This process is repeated for a total of three washes. The phosphate buffered saline containing cells is placed into centrifuge vials and centrifuged at about 3000 rpm (MiniSpin Plus, Eppendorf International, Hamburg, Del.). The supernatant is removed leaving the collected cells in the pellet. The supernatant from the BAL (Bronchoalveolar Lavage) is analyzed by enzyme-linked immunosorbent assay (ELISA) for IL-12 elevation (n=2 per sample tested).

[2] = CoQ10 level in lung tissue after nose-only aerosol dosing; type: in vivo, mice
Description: (§1) Animals were caged in groups of 4 and maintained on a normal rodent chow diet with free access to water. Prior to dosing, CD-1® IGS ICR mice (Charles River Laboratories International, Inc., Wilmington, Mass., USA) were individually acclimatized for approximately 10 minutes per day for 3 days into restraint tubes, restricted by an anterior nose insert and a posterior holder. The dosing apparatus was placed inside a fume hood to collect escaping aerosol containing drug. To avoid influence from the airflow provided by the fume hood, an erlenmeyer container was placed at the end of the tubing system as a buffer. The airflow rate was set to 1 L/min to ensure proper drug aerosolization into the nose-only chamber (internal volume: 230 mL; diameter: 3.8 cm; length: 20.3 cm) using an Aeroneb Pro® vibrating-mesh nebulizer (Aerogen, Galway, Ireland). Following preparation, all formulations (saline control, DMPC, DPPC, and DSPC) were dosed for 15 minutes to mice weighing from 23 to 33 g each, at time of dosing. Each single-dose studied group consisted of thirty-six male animals. At each time point (0.5, 1, 3, 8, 24, and 48 hours after the end of the aerosolization event) six animals randomly selected from different dosing events of the same formulation were sacrificed by narcosis with carbon dioxide. As part of the collection process, blood was withdrawn by cardiac puncture, lungs were harvested, and a nasal wash was performed. […]
For each experiment, CoQ10 levels were determined after liquid extraction using liquid chromatography coupled with tandem mass spectrometry (LC-MS/MS). […]
Samples were tested for normality using the Shapiro Wilk test (p<0.05) and outliers were excluded from data analysis. Pharmacokinetic parameters were determined using Microsoft Office Excel 2007 software (Redmond, Wash.) with the add-in program PKSolver. […] At each time point, lung tissue samples were analyzed for statistical differences among different groups with One-Way ANOVA for significance (p<0.05). […]

mice = assay: Survival and health of mice after nebulization event; type: in vivo; conditions: 48 hours after the end of the nebulization event
Description: as §1, with “dioxide.” for “dioxide. As part of the collection process, blood was withdrawn by cardiac puncture, lungs were harvested, and a nasal wash was performed.”

[3] = Drug loading suitable for continuous nebulization (Example 5); type: physicochemical; conditions: 15-minute nebulization, Aeroneb Pro, DMPC 2.5% w/w
Description: Formulations were prepared based upon the general methods discussed in connection with Examples 1 and 2. For this study, specific dispersions were prepared with 50 microfluidization discrete passes using 2.5% w/w of dimyristoyl phosphatidylcholine (DMPC) and 7.5%, 7.0%, 6.0%, 5.0%, or 4.0% w/w of CoQ10. The dispersions were then aerosolized within 24 hour using an Aeroneb Pro® nebulizer for 15 minute aerosolization event. The aerosolization profile was monitored via analysis of Total Aerosol Output (TAO) and using laser diffraction with a Malvern Spraytec® coupled with an inhalation cell as described above.

[4] = previous studies, same nebulizer

## COC1=C(OC)C(=O)C(C/C=C(\C)CC/C=C(\C)CC/C=C(\C)CC/C=C(\C)CC/C=C(\C)CC/C=C(\C)CC/C=C(\C)CC/C=C(\C)CC/C=C(\C)CCC=C(C)C)=C(C)C1=O [CoQ10, Coenzyme Q10]
[1]
  Dv(50) / particle size: 30 μm and 29.87 μm
IL-12; ELISA
  IL-12 levels in BAL supernatant: not associated with a rise in IL-12 levels
IL-12
  lung inflammation: does not cause lung inflammation
[2]; after 15-minute aerosol dosing
  time CoQ10 stays in the lungs at relatively high concentrations: up to 48 hours
[2]; [4]
  lung Cmax relative to cyclosporine A dispersions: ≤ 75 fold
  lung Cmax relative to itraconazole dispersions: ≤ 165 fold
mice
  survival and health of mice: all mice were alive and presenting healthy signs
[3]
  maximum nominal drug loading without intermittent mist: 4 % w/w

Reference: US10973763B2, “Inhalable pharmaceutical compositions” (Berg LLC, priority 2011, dated 2021)
